Assay results published in patent publication US20040148991A1, “Method and apparatus for dissolving urea” (priority 2003, published 2004).

Experiment: Urea dissolution time in water at 50/50 wt/wt urea/water concentration
Type: physicochemical
Settings: for dissolution time faster than control test: versus control 12 minutes
Procedure: The next step of the method of the present invention comprises mixing the urea prills and the water so as to form a mixture. After the mixture is formed, the mixture of urea and water is then allowed to stand for an amount of time sufficient to allow the temperature of the mixture to reach a predetermined temperature. In a preferred embodiment, the predetermined temperature is between about 19° C. and 24° C., and more preferably, about 23° C. The amount of time required for the temperature of the mixture to reach the predetermined temperature depends upon the amount of mixture in mixing container 12. During this time period in which the mixture is allowed to stand, the temperature of the mixture is monitored with temperature sensor 20. When the temperature of the mixture reaches the predetermined temperature, mixing of the urea/water mixture is resumed and continues until the urea completely dissolves in the water. The time for urea dissolution is measured from the moment the mixing resumes to the point in time when the urea becomes completely dissolved in the water. The solution is outputted from mixing container 12 via outlet 14.
A series of tests were conducted in order to determine the urea dissolution time when various amounts of water were initially added to the urea and wherein additional amounts of water were subsequently added to attain the 50/50 wt/wt urea/water concentration. A control test was first conducted in order to obtain reference data. About 40 grams of urea prills were mixed with an equal amount of water, i.e. 40 grams (or milliliters). The mixture was not allowed to stand for any amount of time. Thus, the mixing step began as soon as 40 grams of urea and 40 grams of water were added to mixing container 12. The time for the urea to completely dissolve was about twelve (12) minutes and is indicated by numeral 100 in the curve of FIG. 2.
In the first test, about 40 grams of urea and 10 grams of water were deposited into mixing container 12. The mixture was then mixed or stirred, and allowed to stand until the temperature of the mixture reached about room temperature or about 23° C. Next, an amount of water necessary to achieve a urea/water concentration of 50/50 wt/wt was added to the mixture. Since the initial amount of water was 10 grams , 30 grams of water were added to the mixture to achieve the desired 50/50 wt/wt concentration. The urea and water were mixed again. The urea completely dissolved in eight (8) minutes after the 50/50 wt/wt urea/water concentration was achieved. This is indicated by numeral 102 on the curve in FIG. 2. The dissolution time was about 33% faster than the control test dissolution time of twelve (12) minutes.
In the next test, about 40 grams of urea and 15 grams of water were deposited into mixing container 12. The mixture was then mixed or stirred, and allowed to stand until the temperature of the mixture reached about room temperature or about 23° C. Next, an amount of water necessary to achieve a 50/50 wt/wt urea/water concentration was added to the mixture. Since the initial amount of water was 15 grams, 25 grams of water were added to the mixture to achieve the desired 50/50 wt/wt urea/water concentration. The urea and water were mixed again. The urea completely dissolved in seven (7) minutes after the 50/50 wt/wt urea/water concentration was achieved. This is indicated by numeral 104 on the curve in FIG. 2. The dissolution time was about 42% faster than the control test dissolution time of twelve (12) minutes.
In the next test, about 40 grams of urea and 20 grams of water were deposited into mixing container 12. The mixture was then mixed or stirred, and allowed to stand until the temperature of the mixture reached about room temperature or about 23° C. Next, an amount of water necessary to achieve a urea/water concentration of 50/50 wt/wt was added to the mixture. […]

dissolution time faster than control test (Test 1: 10 g water initially): about 33%
time for the urea to completely dissolve (Test 1: 40 g urea + 10 g water initially, stand until about 23° C., then 30 g water added to 50/50 wt/wt): 8 min
dissolution time faster than control test (Test 2: 15 g water initially): about 42%
time for the urea to completely dissolve (Test 2: 40 g urea + 15 g water initially, stand until about 23° C., then 25 g water added to 50/50 wt/wt): 7 min
dissolution time faster than control test (Test 3: 20 g water initially): about 58%
time for the urea to completely dissolve (Test 3: 40 g urea + 20 g water initially, stand until about 23° C., then 20 g water added to 50/50 wt/wt): 5 min
dissolution time faster than control test (Test 4: 25 g water initially): about 67%
time for the urea to completely dissolve (Test 4: 40 g urea + 25 g water initially, stand until about 23° C., then 15 g water added to 50/50 wt/wt): 4 min
time for the urea to completely dissolve (Test 5: 40 g urea + 40 g water, mixed, stand until about 23° C., mixed again): 3 min
dissolution time faster than control test (Test 5: 40 g water initially): about 75%
time for the urea to completely dissolve (control test: 40 g urea prills + 40 g water, mixture not allowed to stand): ~12 min
Compound: NC(N)=O [urea]
